Measurements from publication PMC9172056 (Journal of medicinal chemistry, 2022).
Like-named read-outs stand apart in the source and are kept apart here.

Columns and labels:
SARS-CoV-2 3CL^pro = SARS-CoV-2 3CL^pro (Severe acute respiratory syndrome coronavirus 2, UniProt P0DTD1); experiment: biochemical; type: biochemical
MERS-CoV 3CL^pro = MERS-CoV 3CL^pro (Middle East respiratory syndrome-related coronavirus, UniProt K9N7C7); experiment: biochemical
[1] = tested on: entry of SARS-CoV-2 (pseudotyped lentivirus with S); experiment: organism not typed; type: cell-based; settings: read-out: EC50 inhibition of SARS-CoV-2 entry
in vitro = settings: cat
SARS-CoV-2 replicon [2] = type: cell-based; settings: read-out: EC50 SARS-CoV-2 replicon assay
CRFK cells = settings: cat
SARS-CoV-2 replicon [3] = settings: read-out: EC50 SARS-CoV-2 replicon assay, previously reported; cited from earlier work

Chain of MERS-CoV 3CL^pro (K9N7C7 3248-3553 limits assumed): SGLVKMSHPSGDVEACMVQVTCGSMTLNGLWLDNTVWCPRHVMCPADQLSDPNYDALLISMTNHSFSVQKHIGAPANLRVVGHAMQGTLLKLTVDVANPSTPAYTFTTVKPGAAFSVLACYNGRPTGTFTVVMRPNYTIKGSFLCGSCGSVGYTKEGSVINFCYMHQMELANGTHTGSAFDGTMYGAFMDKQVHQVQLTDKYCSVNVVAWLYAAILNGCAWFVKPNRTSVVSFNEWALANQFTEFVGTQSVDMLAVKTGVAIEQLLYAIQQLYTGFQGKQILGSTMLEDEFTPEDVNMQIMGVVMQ

Compound | IC50 (SARS-CoV-2 3CL^pro) | IC50 (MERS-CoV 3CL^pro) | CC50 (in vitro) | also measured
CC(C)C[C@H](NC(=O)OCC1CN(C(=O)OC(C)(C)C)C1)C(=O)N[C@@H](C[C@H]1CCNC1=O)C(O)S(=O)(=O)[O-].[Na+] (stereo partly drawn) [Compound 14c, Sodium (2S)-2-((S)-2-((((1-(tert-butoxycarbonyl)azetidin-3-yl)methoxy)carbonyl)amino)-4-methylpentanamido)-1-hydroxy-3-((R)-2-oxopyrrolidin-3-yl)propane-1-sulfonate] | 500 ± 140 nM | 440 ± 60 nM | > 100000 nM | fold better IC50 than the 12b/12c pair (SARS-CoV-2 3CL^pro): > 6 fold; EC50 [1]: 2000 to 10000 nM
CC(C)C[C@H](NC(=O)OC1CC2(CCN(C(=O)OC(C)(C)C)CC2)C1)C(=O)N[C@H](C=O)C[C@H]1CCNC1=O [Compound 7b, tert-Butyl 2-((((S)-4-methyl-1-oxo-1-(((S)-1-oxo-3-((R)-2-oxopyrrolidin-3-yl)propan-2-yl)amino)pentan-2-yl)carbamoyl)oxy)-7-azaspiro[3.5]nonane-7-carboxylate] |  |  | > 100000 nM | fold lower IC50 than compound 1b (SARS-CoV-2 3CL^pro): > 9 fold; EC50 [1]: 2000 to 10000 nM
CC(C)C[C@H](NC(=O)OC1CC2(CCN(C(=O)C(C)C)CC2)C1)C(=O)N[C@@H](C[C@H]1CCNC1=O)C(O)S(=O)(=O)O (stereo partly drawn) [Compound 8c, Sodium (2S)-1-hydroxy-2-((S)-2-((((7-isobutyryl-7-azaspiro[3.5]nonan-2-yl)oxy)carbonyl)amino)-4-methylpentanamido)-3-((R)-2-oxopyrrolidin-3-yl)propane-1-sulfonate] | 410 ± 10 nM | 520 ± 120 nM | > 100000 nM | 
CC(C)C[C@H](NC(=O)OC1CC2(C1)CN(C(=O)OC(C)(C)C)C2)C(=O)N[C@@H](C[C@H]1CCNC1=O)C(O)S(=O)(=O)O (stereo partly drawn) [Compound 1c, Sodium (2S)-2-((S)-2-((((2-(tert-butoxycarbonyl)-2-azaspiro[3.3]heptan-6-yl)oxy)carbonyl)amino)-4-methylpentanamido)-1-hydroxy-3-((R)-2-oxopyrrolidin-3-yl)propane-1-sulfonate] | 850 ± 70 nM | 280 ± 110 nM | > 100000 nM | 
CC(C)C[C@H](NC(=O)OC1CC2(CCN(C(=O)OC(C)(C)C)C2)C1)C(=O)N[C@@H](C[C@H]1CCNC1=O)C(O)S(=O)(=O)O (stereo partly drawn) [Compound 5c, Sodium (2S)-2-((S)-2-((((6-(tert-butoxycarbonyl)-6-azaspiro[3.4]octan-2-yl)oxy)carbonyl)amino)-4-methylpentanamido)-1-hydroxy-3-((R)-2-oxopyrrolidin-3-yl)propane-1-sulfonate] | 750 ± 70 nM | 750 ± 70 nM | > 100000 nM | 
CC(C)C[C@H](NC(=O)OC1CC2(C1)CN(S(C)(=O)=O)C2)C(=O)N[C@@H](C[C@H]1CCNC1=O)C(O)S(=O)(=O)O (stereo partly drawn) [Compound 4c, Sodium (2S)-1-hydroxy-2-((S)-4-methyl-2-((((2-(methylsulfonyl)-2-azaspiro[3.3]heptan-6-yl)oxy)carbonyl)amino)pentanamido)-3-((R)-2-oxopyrrolidin-3-yl)propane-1-sulfonate] | 760 ± 80 nM | 160 ± 10 nM | > 100000 nM | 
CC(C)C[C@H](NC(=O)OC1CCC2(C1)CN(C(=O)OC(C)(C)C)C2)C(=O)N[C@@H](C[C@H]1CCNC1=O)C(O)S(=O)(=O)O (stereo partly drawn) [Compound 6c, Sodium (2S)-2-((2S)-2-((((2-(tert-butoxycarbonyl)-2-azaspiro[3.4]octan-6-yl)oxy)carbonyl)amino)-4-methylpentanamido)-1-hydroxy-3-((R)-2-oxopyrrolidin-3-yl)propane-1-sulfonate] | 1200 ± 140 nM | 1300 ± 140 nM | > 100000 nM | 
CC(C)C[C@H](NC(=O)OCC1CN(S(C)(=O)=O)C1)C(=O)N[C@@H](C[C@H]1CCNC1=O)C(O)S(=O)(=O)O (stereo partly drawn) [Compound 17c, Sodium (2S)-1-hydroxy-2-((S)-4-methyl-2-((((1-(methylsulfonyl)azetidin-3-yl)methoxy)carbonyl)amino)pentanamido)-3-((R)-2-oxopyrrolidin-3-yl)propane-1-sulfonate] | 4050 ± 780 nM | 1350 ± 210 nM | > 100000 nM | 
CC(C)C[C@H](NC(=O)OC1CC2(C1)CN(C(=O)C(C)C)C2)C(=O)N[C@@H](C[C@H]1CCNC1=O)C(O)S(=O)(=O)O (stereo partly drawn) [Compound 2c, Sodium (2S)-1-hydroxy-2-((S)-2-((((2-isobutyryl-2-azaspiro[3.3]heptan-6-yl)oxy)carbonyl)amino)-4-methylpentanamido)-3-((R)-2-oxopyrrolidin-3-yl)propane-1-sulfonate] | 650 ± 70 nM | 550 ± 70 nM | > 100000 nM | 
CC(C)C[C@H](NC(=O)OCC1CN(C(=O)OC(C)(C)C)C1)C(=O)N[C@H](C=O)C[C@H]1CCNC1=O [Compound 14b, tert-Butyl 3-(((((S)-4-methyl-1-oxo-1-(((S)-1-oxo-3-((R)-2-oxopyrrolidin-3-yl)propan-2-yl)amino)pentan-2-yl)carbamoyl)oxy)methyl)azetidine-1-carboxylate] |  |  | > 100000 nM | fold better IC50 than the 12b/12c pair (SARS-CoV-2 3CL^pro): > 6 fold; fold more potent than 17b (SARS-CoV-2 3CL^pro): 12 fold; EC50 [1]: 2000 to 10000 nM
CC(C)C[C@H](NC(=O)OC1CC2(CCN(C#N)CC2)C1)C(=O)N[C@@H](C[C@H]1CCNC1=O)C(O)S(=O)(=O)O (stereo partly drawn) [Compound 11c, Sodium (2S)-2-((S)-2-((((7-cyano-7-azaspiro[3.5]nonan-2-yl)oxy)carbonyl)amino)-4-methylpentanamido)-1-hydroxy-3-((R)-2-oxopyrrolidin-3-yl)propane-1-sulfonate] | 390 ± 30 nM | 630 ± 180 nM | > 100000 nM | 
CC(C)C[C@H](NC(=O)OCC1CN(C(=O)Cc2ccccc2)C1)C(=O)N[C@@H](C[C@H]1CCNC1=O)C(O)S(=O)(=O)O (stereo partly drawn) [Compound 15c, Sodium (2S)-1-hydroxy-2-((S)-4-methyl-2-((((1-(2-phenylacetyl)azetidin-3-yl)methoxy)carbonyl)amino)pentanamido)-3-((R)-2-oxopyrrolidin-3-yl)propane-1-sulfonate] | 760 ± 80 nM | 180 ± 10 nM | > 100000 nM | 
GC376 |  |  |  | EC50 (SARS-CoV-2 replicon [2]): 27 ± 10 nM; CC50 (CRFK cells): > 100000 nM; EC50 (SARS-CoV-2 replicon [3]): 20 nM
CC(C)C[C@H](NC(=O)OC1CC2(CCN(C(=O)OC(C)(C)C)CC2)C1)C(=O)N[C@@H](C[C@H]1CCNC1=O)C(O)S(=O)(=O)O (stereo partly drawn) [Compound 7c, Sodium (2S)-2-((S)-2-((((7-(tert-butoxycarbonyl)-7-azaspiro[3.5]nonan-2-yl)oxy)carbonyl)amino)-4-methylpentanamido)-1-hydroxy-3-((R)-2-oxopyrrolidin-3-yl)propane-1-sulfonate] | 290 ± 20 nM | 950 ± 210 nM | > 100000 nM | EC50 [1]: 2000 to 10000 nM
